Measured values from US20040122218A1, “Pyrrolopyridine potassium channel openers” (priority 2002, published 2004).

What was measured:
Landrace pig bladders = assay: In vitro functional model: field-stimulated bladder tissue strips; settings: concentration range of 10^−9 to 10^−5 M, cumulative
Method: In Vitro Functional Model
Compounds were evaluated for functional BK channel opening activity using tissue strips obtained from Landrace pig bladders. Landrace pig bladders were obtained from female Landrace pigs of 9-30 kg. Landrace pigs were euthanized with an intraperitoneal injection of pentobarbital solution, Somlethal®, J.A. Webster Inc., Sterling Mass. The entire bladder was removed and immediately placed into Krebs Ringer bicarbonate solution (composition, mM: NaCl, 120; NaHCO3, 20; dextrose, 11; KCl, 4.7; CaCl2, 2.5; MgSO4, 1.5; KH2PO4, 1.2; K2EDTA, 0.01, equilibrated with 5% CO2/95% O2 pH 7.4 at 37° C.). Propranolol (0.004 mM) was included in all of the assays to block β-adrenoceptors. The trigonal and dome portions were discarded. Strips 3-5 mm wide and 20 mm long were prepared from the remaining tissue cut in a circular fashion. The mucosal layer was removed. One end was fixed to a stationary glass rod and the other to a Grass FT03 transducer at a basal preload of 1.0 gram. Two parallel platinum electrodes were included in the stationary glass rod to provide field stimulation of 0.05 Hz, 0.5 milli-seconds at 20 volts. […] The maximal efficacy of each compound (expressed as % relative to P1075) is reported. […] Agonist potencies were also expressed as an index relative to P1075. The index was calculated by dividing the ED50 for P1075 by the ED50 for the test agonist in a given tissue. […]

## N#Cc1c(N2CCC[C@@H]2CO)[nH]c2cccnc12 [Example 9, (R)-2-(2-Hydroxymethyl-pyrrolidin-1-yl)-1H-pyrrolo [3,2-b]pyridine-3-carbonitrile]
other
  melting point: 207 to 209 °C

## N#Cc1c(N2CCC[C@H]2CO)[nH]c2cccnc12 [Example 10, (S)-2-(2-Hydroxymethyl-pyrrolidin-1-yl)-1H-pyrrolo [3,2-b]pyridine-3-carbonitrile]
other
  melting point: 207 to 209 °C

## N#Cc1c(N2CCCCC2)[nH]c2cccnc12 [Example 18, 2-Piperidin-1-yl-1H-pyrrolo[3,2-b]pyridine-3-carbonitrile]
other
  melting point: 241 to 242 °C

## CCC(C)(C)N=C(NC#N)Nc1cccnc1 [Example P1075]
Landrace pig bladders
  effect on stimulated twitch: completely eliminated the stimulated twitch
